Drawing on BindingDB's records for doi:10.7270/Q2CV4GCW (The Scripps Research Institute Molecular Screening Center, 2014), this text covers IC50 for 18 compounds.

Broadly, the IC50 is the concentration at which inhibition is half-maximal. A low value points to higher potency.

The target in the assay is T1, Group 3 secretory phospholipase A2 (Homo sapiens, UniProt Q9NZ20).
T1 sequence (Q9NZ20 whole entry): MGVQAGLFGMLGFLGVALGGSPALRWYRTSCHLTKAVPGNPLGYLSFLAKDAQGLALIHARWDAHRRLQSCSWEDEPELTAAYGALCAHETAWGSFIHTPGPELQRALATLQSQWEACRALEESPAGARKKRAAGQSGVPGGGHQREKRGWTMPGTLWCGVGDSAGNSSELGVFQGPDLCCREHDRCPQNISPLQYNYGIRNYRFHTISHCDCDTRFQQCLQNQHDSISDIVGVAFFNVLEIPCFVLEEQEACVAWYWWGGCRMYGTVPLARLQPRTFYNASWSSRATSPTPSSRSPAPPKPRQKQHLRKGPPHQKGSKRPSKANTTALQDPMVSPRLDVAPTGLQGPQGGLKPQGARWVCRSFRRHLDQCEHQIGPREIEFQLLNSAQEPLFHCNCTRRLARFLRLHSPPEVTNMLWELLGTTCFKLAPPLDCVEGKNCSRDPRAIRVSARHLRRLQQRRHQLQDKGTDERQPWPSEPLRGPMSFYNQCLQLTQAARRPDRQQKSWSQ
The assay is described as follows: HGIII-sPLA2 enzyme inhibition potency – biochemical, QFRET, IC50, dose response (AID 743457).
Compound `Cc1noc(/C=C/N(C)C)c1S(=O)(=O)N1CCCC(C(=O)NCc2ccco2)C1` (stereo not drawn) came in with an IC50 of 122 µM.
`COCCN1C(=O)/C(=C/c2c(OC)cc(OC)cc2OC)C(=O)N(c2ccccc2)C1=O` displayed an IC50 of 100 µM.
Compound `NS(=O)(=O)c1ccc(Nc2nc3ccccc3nc2NS(=O)(=O)c2cccc([N+](=O)[O-])c2)cc1` displayed a 50% inhibitory concentration (IC50) of 42.5 µM.
`Cc1c(Cl)cccc1N=C(S)NCCc1ccc(S(N)(=O)=O)cc1` came in with a 50% inhibitory concentration (IC50) of 122 µM.
Then `COc1ccc(C=NNC(=O)CSc2n[nH]c(=O)[nH]c2=O)cc1` [2-[[3,5-bis(oxidanylidene)-2H-1,2,4-triazin-6-yl]sulfanyl]-N-[(4-methoxyphenyl)methylideneamino]ethanamide], with 48 µM.
`COC(=O)CCC(=O)OC1(C)C(=O)C2=CN(CCCOC(C)C)C(c3ccc(OC)cc3)=CC2=C(Br)C1=O` (stereo not drawn) [4-O-[5-bromo-3-(4-methoxyphenyl)-7-methyl-6,8-dioxo-2-(3-propan-2-yloxypropyl)isoquinolin-7-yl] 1-O-methyl butanedioate] displayed an IC50 of 122 µM.
Then `Cc1n[nH]c(N=Nc2ccc(O)cc2)n1` [4-[(5-methyl-1H-1,2,4-triazol-3-yl)hydrazinylidene]cyclohexa-2,5-dien-1-one], with 20.5 µM; and `Cc1ccc(O)c(-c2cc(C(=O)Nc3ccc(S(=O)(=O)Nc4nccc(C)n4)cc3)[nH]n2)c1` [5-(2-Hydroxy-5-methyl-phenyl)-2H-pyrazole-3-carboxylic acid [4-(4-methyl-pyrimidin-2-ylsulfamoyl)-phenyl]-amide], with 122 µM.
Then `COc1cc(/C=C(/C#N)c2nc3ccccc3[nH]2)ccc1OCc1ccc(C(=O)O)o1` [5-[[4-[(Z)-2-(1H-benzimidazol-2-yl)-2-cyanoethenyl]-2-methoxyphenoxy]methyl]-2-furancarboxylic acid], with 66.3 µM; and `CSCc1nc2sc(C(=O)Nc3nc(C)cs3)c(C)c2c(=O)[nH]1` [5-methyl-2-(methylsulfanylmethyl)-N-(4-methyl-1,3-thiazol-2-yl)-4-oxo-3H-thieno[2,3-d]pyrimidine-6-carboxamide], with 122 µM.
Take `O=C1c2ccccc2SC1/C=N/c1cc([N+](=O)[O-])ccc1O` (stereo not drawn) [(2Z)-2-[[(5-nitro-2-oxidanyl-phenyl)amino]methylidene]-1-benzothiophen-3-one]: the IC50 was 122 µM.
The result for `CCN(CC)c1nc2c3c(nc4c(c3c1C#N)CC(=O)N4c1ccc(Cl)cc1)NC(C)=N2` [MLS000389664] reads 25 µM; that for `CCCCn1c(NS(=O)(=O)c2ccccc2)c(C(=O)OCC)c2nc3ccccc3nc21` [MLS000589117], 40.6 µM.
Then `Cc1ccc(-n2ncc3c(NNC(=O)c4ccco4)ncnc32)cc1C` [MLS001235991], with 122 µM; and `O=C1C([N+](=O)[O-])=CC(Cl)=CC1/C=N/NC(=O)C(O)(c1ccccc1)c1ccccc1` (stereo not drawn) [N''''-[(E)-(3-chloro-5-nitro-6-oxocyclohexa-2,4-dien-1-ylidene)methyl]-2-hydroxy-2,2-diphenylacetohydrazide], with 32.5 µM.
Then `C=CCSC(N)=NN=CC1C=C(Br)C=C([N+](=O)[O-])C1=O` (stereo not drawn) [N''-[[(E)-(3-bromo-5-nitro-6-oxo-1-cyclohexa-2,4-dienylidene)methyl]amino]carbamimidothioic acid prop-2-enyl ester], with 40.6 µM; and `Cc1ccc(C(=O)Nc2nc(C(C)(C)C)cs2)s1` [N-(4-tert-butyl-2-thiazolyl)-5-methyl-2-thiophenecarboxamide], with 122 µM; and `Cc1ccc(C(=O)n2c3ccccc3c3ccccc32)cc1` [carbazol-9-yl-(4-methylphenyl)methanone], with 30.3 µM.
